Source: ChEMBL document CHEMBL1154749, “P2'-truncated BACE-1 inhibitors with a novel hydroxethylene-like core” (Eur J Med Chem, 2010)

Biological target: Beta-secretase 1 (Homo sapiens, UniProt P56817)
Experiment: Inhibition of human brain BACE1 expressed in Escherichia coli BL21(DE) by TRF assay

Chain of Beta-secretase 1 (P56817 whole entry): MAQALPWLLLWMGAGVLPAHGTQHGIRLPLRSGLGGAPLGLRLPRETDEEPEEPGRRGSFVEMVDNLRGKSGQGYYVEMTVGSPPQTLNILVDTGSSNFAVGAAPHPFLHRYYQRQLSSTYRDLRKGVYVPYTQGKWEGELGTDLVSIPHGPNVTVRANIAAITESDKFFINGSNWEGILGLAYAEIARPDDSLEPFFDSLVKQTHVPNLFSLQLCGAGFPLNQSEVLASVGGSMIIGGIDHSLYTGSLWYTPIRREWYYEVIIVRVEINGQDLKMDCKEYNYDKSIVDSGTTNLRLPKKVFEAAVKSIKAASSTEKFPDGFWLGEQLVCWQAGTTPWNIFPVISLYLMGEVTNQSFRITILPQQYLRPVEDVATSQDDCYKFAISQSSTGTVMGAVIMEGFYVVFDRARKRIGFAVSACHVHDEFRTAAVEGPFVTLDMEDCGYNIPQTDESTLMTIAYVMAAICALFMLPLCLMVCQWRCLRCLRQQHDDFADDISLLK

Row | Structure (SMILES) | IC50
1 | COc1ccc(COC[C@@H](C[C@H](O)[C@H](COc2cc(F)cc(F)c2)NC(=O)c2cc(N(C)C[C@H]3C[C@@H]3C)nc(N(C)S(C)(=O)=O)c2)OC)cc1 | 1800 nM
2 | CO[C@@H](COCc1ccc(F)cc1)C[C@H](O)[C@H](COc1cc(F)cc(F)c1)NC(=O)c1cc(C(=O)N[C@H](C)c2ccccc2)cc(N(C)S(C)(=O)=O)c1 | > 10000 nM
3 | CO[C@@H](COc1ccccc1)C[C@H](O)[C@H](COc1cc(F)cc(F)c1)NC(=O)c1cc(C(=O)N[C@H](C)c2ccccc2)cc(N(C)S(C)(=O)=O)c1 | 6500 nM
4 | CO[C@@H](COCc1ccccc1)C[C@H](O)[C@H](COc1cc(F)cc(F)c1)NC(=O)c1cc(C(=O)N[C@H](C)c2ccccc2)cc(N(C)S(C)(=O)=O)c1 | 240 nM
5 | CO[C@@H](CNCc1ccccc1)C[C@@H](O)[C@H](COc1cc(F)cc(F)c1)NC(=O)c1cc(C(=O)N[C@H](C)c2ccccc2)cc(N(C)S(C)(=O)=O)c1 | > 10000 nM
6 | CO[C@@H](CNc1ccccc1)C[C@H](O)[C@H](COc1cc(F)cc(F)c1)NC(=O)c1cc(C(=O)N[C@H](C)c2ccccc2)cc(N(C)S(C)(=O)=O)c1 | 1500 nM
7 | COC[C@@H](C[C@H](O)[C@H](COc1cc(F)cc(F)c1)NC(=O)c1cc(C(=O)N[C@H](C)c2ccccc2)cc(N(C)S(C)(=O)=O)c1)OC | > 10000 nM
8 | C=CCOC[C@@H](C[C@H](O)[C@H](COc1cc(F)cc(F)c1)NC(=O)c1cc(C(=O)N[C@H](C)c2ccccc2)cc(N(C)S(C)(=O)=O)c1)OC | 2030 nM
9 | CCc1cn2c3c(ccc(C(=O)N[C@@H](COc4cc(F)cc(F)c4)[C@@H](O)C[C@H](COCc4ccc(OC)cc4)OC)c13)N(C)S(=O)(=O)CC2 | 1500 nM
10 | CO[C@@H](COC(C)C)C[C@H](O)[C@H](COc1cc(F)cc(F)c1)NC(=O)c1cc(C(=O)N[C@H](C)c2ccccc2)cc(N(C)S(C)(=O)=O)c1 | 480 nM
11 | CO[C@@H](CO)C[C@H](O)[C@H](COc1cc(F)cc(F)c1)NC(=O)c1cc(C(=O)N[C@H](C)c2ccccc2)cc(N(C)S(C)(=O)=O)c1 | > 10000 nM
12 | CO[C@@H](CNCc1ccccc1)C[C@H](O)[C@H](COc1cc(F)cc(F)c1)NC(=O)c1cc(C(=O)N[C@H](C)c2ccccc2)cc(N(C)S(C)(=O)=O)c1 | > 10000 nM
13 | CO[C@@H](COCC1CC1)C[C@H](O)[C@H](COc1cc(F)cc(F)c1)NC(=O)c1cc(C(=O)N[C@H](C)c2ccccc2)cc(N(C)S(C)(=O)=O)c1 | 1860 nM
14 | COc1cccc(COC[C@@H](C[C@H](O)[C@H](COc2cc(F)cc(F)c2)NC(=O)c2cc(C(=O)N[C@H](C)c3ccccc3)cc(N(C)S(C)(=O)=O)c2)OC)c1 | > 10000 nM
15 | CO[C@@H](CNc1ccc(F)cc1)C[C@H](O)[C@H](COc1cc(F)cc(F)c1)NC(=O)c1cc(C(=O)N[C@H](C)c2ccccc2)cc(N(C)S(C)(=O)=O)c1 | 1500 nM
16 | COc1ccc(COC[C@@H](C[C@H](O)[C@H](COc2cc(F)cc(F)c2)NC(=O)c2cc(C(=O)N[C@H](C)c3ccccc3)cc(N(C)S(C)(=O)=O)c2)OC)cc1 | 140 nM
